These results are taken from paper PMC6615598, “Novel antibiotics effective against gram-positive and -negative multi-resistant bacteria with limited resistance” (PLoS Biology, 2019).

One experiment concerns MRSA. Put plainly: Severe sepsis mouse model, survival. The conditions noted are these: mice, approximately 2 × 10^9 CFUs MRSA IV; 4 IV doses of 0.5 mg.kg^−1 at 2, 24, 48, 72 h. Type of experiment: in vivo. An excerpt:
Tolerance and toxicity studies were done on male Swiss mice (CD-1 Crl: CD-1 [ICR] IGS; Charles River). These were 7 to 10 weeks old and weighed an average of 37.2 g. All experimental protocols were approved by the Adaptive Therapeutics Animal Care and Use Committee (APAFiS #4508-2016031l15541258 v2). For the sepsis model, we used female Swiss mice (Janvier Labs), 6 to 8 weeks old and weighing approximately 30 g. Experiments were monitored in the ARCHE-BIOSIT animal lab in Rennes, in biological duplicate. We used Groups of 5 mice for the mild and the severe sepsis models with MRSA. Mice were IV inoculated with 150 μl of MRSA suspensions in 0.9% NaCl containing approximately 5 × 10^8 CFUs for the “mild” sepsis and approximately 2 × 10^9 CFUs for the “severe” sepsis, respectively. […] Mice survival was monitored for 4 d (“severe” sepsis) or 14 d (“mild” sepsis), and the statistical significance of difference(s) between the groups was evaluated using the Wilcoxon test. P < 0.05 was considered significant. Two weeks (“mild” sepsis) or 4 d (“severe” sepsis) after inoculation, mice were euthanized with CO2.

The next experiment relates to S. aureus. Put plainly: Intracellular ATP levels of SCV versus normal colonies from skin abscesses. Type of experiment: cell-based. The conditions noted are these: individual values. The protocol: For the cutaneous abscess model, the mice were randomly divided into 5 sets. The mice were anesthetized with isoflurane, their dorsal fur shaved, and their skin disinfected with 70% ethanol. An overnight culture of S. aureus MRSA or P. aeruginosa LESB58 was washed with 0.9% NaCl, and then a subcutaneous injection of 2 × 10^9 CFUs and an equal amount of sterile Cytodex microcarrier beads (20 mg.ml^−1, Sigma) for S. aureus MRSA, or 10^8 CFUs for P. aeruginosa were injected into the shaved area. […] Mice were monitored every day and then euthanized with CO2 on Day 6 or on Day 3. Abscesses were excised, measured, and homogenized in PBS using an Ultra-Turax. Serial dilutions of the samples were plated on BHI (MRSA) or 2YT medium (LESB58) plates and then incubated overnight at 37°C. Afterward, the CFUs were counted and expressed as log CFU/ml. Dermonecrosis areas were calculated according to the formula π × L × W. ATP levels were determined with an ATP assay kit (Promega) according to manufacturer instructions on sets of 5 colonies harboring the SCV phenotype, and sets of 5 colonies harboring a normal phenotype, after growth on BHI plates.

The structures appear in SMILES notation. “And” between values parts separate entries of the source, which are not always exact repeats. Identical values can stand only once. Starred links: 1 amine or outer side, 2 acyl side, 3 side chain; linkers in the order of their positions; H or OH if unused. Non-standard residues stand in square brackets, D forms with d. Residues, ends and D or L forms follow the SMILES beside them. azaβ3(1Nal) = O=C(CN(Cc1cccc2ccccc12)N[*:1])[*:2]

Turning to `CC(C)[C@@H]1NC(=O)[C@H](CCCNC(=N)N)NC(=O)[C@H](CCCNC(=N)N)NC(=O)CN(Cc2cccc3ccccc23)NC(=O)[C@H](Cc2ccccc2)NC(=O)CN(Cc2cccc3ccccc23)NC(=O)[C@H](CCCCN)NC1=O` [Pep19] (cyclo([azaβ3(1Nal)]F[azaβ3(1Nal)]RRVK)), the “Survival in severe sepsis” value in the experiment with MRSA is recorded as “protected the infected animals”. For the same compound, in the experiment with S. aureus ('normal growing' colonies from MRSA abscesses of mice treated IV with 1.5 mg.kg-1), the “Intracellular ATP level, 'normal growing'” value is 128624 AU and 143636 AU and 122235 AU and 111054 AU and 122356 AU. In the experiment with S. aureus (SCV from MRSA abscesses of mice treated IV with 1.5 mg.kg-1), the “Intracellular ATP level, SCV” value was 21955.1 AU and 16114.9 AU and 17911.8 AU and 16800 AU and 28088.5 AU.
